Counter-ions that a name gives are not always drawn.
Biological target: T1, recombinant IRAK-4 kinase (Homo sapiens, UniProt Q9NWZ3)
T1 construct: purchased Millipore, USA
T1 sequence (Q9NWZ3 1-460): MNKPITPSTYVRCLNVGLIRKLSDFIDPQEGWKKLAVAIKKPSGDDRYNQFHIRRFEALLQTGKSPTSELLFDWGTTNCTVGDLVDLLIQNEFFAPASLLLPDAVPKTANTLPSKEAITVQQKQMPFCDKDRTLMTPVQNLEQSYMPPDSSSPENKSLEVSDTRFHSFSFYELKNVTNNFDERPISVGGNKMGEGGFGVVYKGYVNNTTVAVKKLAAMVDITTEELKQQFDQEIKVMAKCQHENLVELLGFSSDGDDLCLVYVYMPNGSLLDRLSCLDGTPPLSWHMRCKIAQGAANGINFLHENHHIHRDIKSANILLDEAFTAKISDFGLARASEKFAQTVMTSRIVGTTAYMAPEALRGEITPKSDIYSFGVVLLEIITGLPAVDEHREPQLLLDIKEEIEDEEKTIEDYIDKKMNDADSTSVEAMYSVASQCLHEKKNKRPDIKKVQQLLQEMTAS
Assay: IRAK-4 Biochemical Assay (TR-FRET)
Details: 5 ng IRAK-4 kinase, 100 nM Biotin Histone H3, 20 μM ATP, 30 minutes pre-incubation, read-out: IC50 values for IRAK4 activity
Outline: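 Recombinant IRAK-4 (5 ng) pre-incubated with compound 30 min at room temperature in Tris-HCl pH 7.5 with MgCl2/MnCl2, then 100 nM biotin-histone H3 and 20 μM ATP added for 30 min. Stopped with EDTA; phospho-Ser10 read by TR-FRET (Eu-antibody/APC-streptavidin).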

| Structure (SMILES) | IC50 [nM] |
| --- | --- |
| Cc1cc(-c2nc(C(=O)Nc3cc4sc(N5CCCC(O)C5)nc4nc3N3CCC(O)CC3)co2)ccn1 (centres unmarked) [Example 126, N-(2-(3-hydroxypiperidin-1-yl)-5-(4-hydroxypiperidin-1-yl)thiazolo[4,5-b]pyridin-6-yl)-2-(2-methylpyridin-4-yl)oxazole-4-carboxamide] | < 50 |
| CC(=O)Nc1cc(-c2nc(C(=O)Nc3cc4sc(N5CCOCC5)nc4nc3N3CCCC(O)C3)co2)ccn1 (centres unmarked) [Example 127, 2-(2-acetamidopyridin-4-yl)-N-(5-(3-hydroxypiperidin-1-yl)-2-morpholinothiazolo[4,5-b]pyridin-6-yl)oxazole-4-carboxamide] | < 50 |
| Nc1cc(-c2nc(C(=O)Nc3cc4sc(N5CCOCC5)nc4nc3N3CCCC(O)C3)co2)ccn1 (centres unmarked) [Example 128, 2-(2-aminopyridin-4-yl)-N-(5-(3-hydroxypiperidin-1-yl)-2-morpholinothiazolo[4,5-b]pyridin-6-yl)oxazole-4-carboxamide hydrochloride] | < 50 |
| Nc1cc(-c2ccc(C(=O)Nc3cc4sc(N5CCOCC5)nc4nc3N3CCC(O)CC3)o2)ccn1 [Example 129, 5-(2-aminopyridin-4-yl)-N-(5-(4-hydroxypiperidin-1-yl)-2-morpholinothiazolo[4,5-b]pyridin-6-yl)furan-2-carboxamide hydrochloride] | < 50 |
| Nc1cc(-c2nc(C(=O)Nc3cc4sc(N5CCOCC5)nc4nc3N3CCC(O)CC3)co2)ccn1 [Example 130, 2-(2-aminopyridin-4-yl)-N-(5-(4-hydroxypiperidin-1-yl)-2-morpholinothiazolo[4,5-b]pyridin-6-yl)oxazole-4-carboxamide hydrochloride] | < 50 |
| Nc1cc(-c2nc(C(=O)Nc3cc4sc(N5CCOCC5)nc4nc3N3CCC(F)CC3)co2)ccn1 [Example 131, 2-(2-aminopyridin-4-yl)-N-(5-(4-fluoropiperidin-1-yl)-2-morpholinothiazolo[4,5-b]pyridin-6-yl)oxazole-4-carboxamide hydrochloride] | < 50 |
| Cc1cc(-c2nc(C(=O)Nc3cc4sc(N5CCCC(O)C5)nc4nc3N3CCC(F)CC3)co2)ccn1 (centres unmarked) [Example 133, N-(5-(4-fluoropiperidin-1-yl)-2-(3-hydroxypiperidin-1-yl)thiazolo[4,5-b]pyridin-6-yl)-2-(2-methylpyridin-4-yl)oxazole-4-carboxamide] | < 50 |
| Cc1cc(-c2nc(C(=O)Nc3cc4sc(N5CCCC(O)C5)nc4nc3N3CCC(N)CC3)co2)ccn1 (centres unmarked) [Example 134, N-(5-(4-aminopiperidin-1-yl)-2-(3-hydroxypiperidin-1-yl)thiazolo[4,5-b]pyridin-6-yl)-2-(2-methylpyridin-4-yl)oxazole-4-carboxamide hydrochloride] | < 50 |

Reference: patent US10047104B2, “Bicyclic heterocyclyl derivatives as IRAK4 inhibitors” (Aurigene Discovery Technologies Limited, priority 2014, dated 2018)
